Where a name gives a salt, the structure may show the parent alone.
Columns and labels:
[1] = tested on: homocysteine synthesis; assay: Measurement of homocysteine synthesis inhibitory activity in vivo (methionine-loaded mouse, plasma homocysteine); settings: dose of 10 mg/kg, oral, BALB/c mouse; methionine water 1 hr later; plasma 30 min after; read-out: activity (homocysteine synthesis inhibitory rate)
Description: A sample was orally administered to BALB/c mouse and, 1 hr later, methionine water (50 g/L) was orally administered at a proportion of 10 ml/kg. 30 min later, blood samples were collected with heparin from the abdominal vein and plasma was obtained. The plasma homocysteine concentration was measured by treating the plasma with tributylphosphine, removing protein with 10% trichloroacetic acid (TCA), fluorescent labeling the supernatant with 4-fluoro-7-sulfobenzofurazan ammonium salt (SBD-F) under alkali conditions, and quantifying by HPLC. The homocysteine synthesis inhibitory rate of the sample was determined with the difference in the homocysteine value between methionine water-loaded animal and methionine water-unloaded animal as 100%. The detailed conditions of HPLC were as follows.
column used: Wakopak^R HandyODS 150*4.6 mm (Wako Pure Chemical Industries, Ltd.) elution condition: 1.0 ml/min elution solvent: 0.1M phosphate buffer (pH 6.0) 2% methanol wavelength: ex 385 nm em 515 nm

[2] = target: T1, Human-recombinant-S-Adenosyl-L-Homocysteine Hydrolase (Homo sapiens, UniProt P23526); assay: Measurement of enzyme inhibitory activity (hydrolysis of S-Adenosyl-L-Homocysteine, HPLC); format: biochemical; settings: S-Adenosyl-L-Homocysteine 10 μM, pH 7.2, 37° C., 15 min
T1 construct: purchased Diazyme Laboratories
T1 sequence (P23526 whole entry): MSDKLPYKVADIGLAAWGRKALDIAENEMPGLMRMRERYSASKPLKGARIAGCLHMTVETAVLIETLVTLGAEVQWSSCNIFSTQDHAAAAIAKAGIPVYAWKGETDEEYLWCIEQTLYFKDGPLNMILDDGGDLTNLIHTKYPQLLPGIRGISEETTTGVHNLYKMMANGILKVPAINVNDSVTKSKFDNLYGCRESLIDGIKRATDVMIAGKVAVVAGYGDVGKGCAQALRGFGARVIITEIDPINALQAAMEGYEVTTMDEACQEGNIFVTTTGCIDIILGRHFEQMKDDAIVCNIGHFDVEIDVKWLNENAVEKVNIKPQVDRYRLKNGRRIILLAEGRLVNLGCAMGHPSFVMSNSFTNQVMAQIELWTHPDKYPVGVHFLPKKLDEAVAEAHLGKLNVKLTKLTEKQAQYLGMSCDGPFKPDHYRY
In short: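 Reactions contained recombinant human SAH hydrolase (50 ng), 10 μM S-adenosyl-L-homocysteine and adenosine deaminase (4 units) in 50 mM phosphate buffer, pH 7.2, with 1 mM EDTA, run 15 min at 37 °C. Remaining substrate was measured by reversed-phase HPLC (UV 258 nm). Inhibitory rate compared substrate depletion with versus without compound.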

[3] = tested on: Mouse Ischemic Stroke Model; assay: Infarct volume suppressive and motor function improving effects in mouse ischemic stroke model (Rose Bengal photothrombosis, TTC staining, Rota-rod); format: in vivo; settings: dose of 10 mg/kg; for infarct volume suppression rate (%): two administrations, measured two days later, TTC staining; for walking time (%): walking time on Rota-Rod with Vehicle 100%, two days later
Description: Mouse was fixed under isoflurane anesthesia and the scalp was incised. Rose Bengal (7.5 mg/kg) was administered i.v., and green light (550 nm, Hamamatsu Photonics, K.K.) was immediately irradiated at 2 mm side and 1 mm above the bregma for 5 min. Thereafter, the scalp was bonded with an instant glue. To the test drug and control groups was given the first administration after the mice awoke, and they were subjected to the administration again the next day. Two days later, motor function was evaluated by Rota-rod (up to 60 sec, walking time on Rota-Rod was measured). Then the brain was removed, sliced in 1 mm, the site of infaction was decided by 1% TTC staining and the volume was measured by image analysis. The infarct volume suppression rate (%) and walking time (%) on Rota-Rod with Vehicle 100% at the dose of 10 mg/kg are shown in the following Table. In addition, walking time (sec) on Rota-Rod and infarct volume suppression rate (mm^3) when 3-deazaadenosine was used as a test drug are shown in FIG. 1 and FIG. 2.

| SMILES | inhibition in vivo at 10 mg/kg [1] | IC50 [2] | infarct volume suppression rate (%) [3] | walking time (%) [3] |
| --- | --- | --- | --- | --- |
| CCNCCNC(=O)CN(CC(=O)N(C)N1Cc2ccc(F)cc2C1)c1cc(-c2noc(C)n2)ccc1C.Cl [Example 20, N^2-{2-[(5-fluoro-1,3-dihydro-2H-isoindol-2-yl)(methyl)amino]-2-oxoethyl}-N^2-[2-methyl-5-(5-methyl-1,2,4-oxadiazol-3-yl)phenyl]-N^1-[2-(ethylamino)ethyl]glycinamide] | ≥ 40% | 39 nM | 26% | 240% |
| CCNCCNC(=O)CN(CC(=O)N(C)N1Cc2ccccc2C1)c1ccc(-c2noc(C)n2)cc1C [Example 65, N^2-{2-[1,3-dihydro-2H-isoindol-2-yl(methyl)amino]-2-oxoethyl}-N^2-[2-methyl-4-(5-methyl-1,2,4-oxadiazol-3-yl)phenyl]-N^1-[2-(ethylamino)ethyl]glycinamide] | ≥ 40% | 47 nM | 30% | 250% |
| CCNCCNC(=O)CN(CC(=O)N(C)N1Cc2ccc(F)cc2C1)c1cc2c(C)noc2cc1C [Example 183, N^2-(3,6-dimethyl-1,2-benzisoxazol-5-yl)-N^2-{2-[(5-fluoro-1,3-dihydro-2H-isoindol-2-yl)(methyl)amino]-2-oxoethyl}-N^1-[2-(ethylamino)ethyl]glycinamide dihydrochloride] |  |  | 22% | 240% |
| CCNCCNC(=O)CN(CC(=O)N(C)N1Cc2ccc(F)cc2C1)c1cc2c(cc1C)CCC2=O [Example 215, N^2-{2-[(5-fluoro-1,3-dihydro-2H-isoindol-2-yl)(methyl)amino]-2-oxoethyl}-N^2-(6-methyl-3-oxo-2,3-dihydro-1H-inden-5-yl)-N^1-[2-(ethylamino)ethyl]glycinamide] | ≥ 40% | 47 nM | 19% | 340% |
| CCNCCNC(=O)CN(CC(=O)N(C)N1Cc2ccc(F)cc2C1)c1cc2cnn(C)c2cc1C [Example 244, N^2-(1,6-dimethyl-1H-indazol-5-yl)-N^2-{2-[(5-fluoro-1,3-dihydro-2H-isoindol-2-yl)(methyl)amino]-2-oxoethyl}-N^1-[2-(ethylamino)ethyl]glycinamide hydrochloride] | ≥ 40% |  | 26% | 330% |
| CCNCCNC(=O)CN(CC(=O)N(C)N1Cc2ccc(F)cc2C1)c1cc2cnn(CC(F)F)c2cc1C [Example 253, N^2-[1-(2,2-difluoroethyl)-6-methyl-1H-indazol-5-yl]-N^2-{2-[(5-fluoro-1,3-dihydro-2H-isoindol-2-yl)(methyl)amino]-2-oxoethyl}-N^1-[2-(ethylamino)ethyl]glycinamide hydrochloride] | ≥ 40% | 20 nM | 16% | 230% |
